Assay results: patent US12370161B2, “Composition for treating atopy or pruritus comprising N-acetyl or N-acyl amino acid” (STEMDR INC., priority 2017, dated 2025)

Legend:
[1] = system: atopic dermatitis-induced Nc/Nga mouse; test: SCORAD clinical skin score, DNFB-induced atopic dermatitis in Nc/Nga mouse; type: in vivo; set-up: key to Mouse 1 Erythema / Mouse 2 Eschar / Mouse 2 Dryness / Mouse 2 Abrasion / Mouse 1 Edema / Mouse 1 Eschar / Mouse 1 Dryness / Mouse 1 Abrasion / Mouse 2 Erythema / Mouse 2 Edema / Mouse 3 Erythema / Mouse 3 Edema / Mouse 3 Eschar / Mouse 3 Dryness / Mouse 3 Abrasion: 0 = no symptom, 1 = mild, 2 = moderate, 3 = severe; key to Mouse 1 Sum / Mean (of Sum, SCORAD) / Mouse 3 Sum: sum of individual symptom scores, each graded 0-3; conditions: for dermatitis-treating effect of L-, L/D- and D-form (FIG. 6): Nc/Nga atopic dermatitis model, 0.1%; for Mouse 1 Erythema: DNFB Nc/Nga (FIG. 8), 0.1% in PBS, 200 μL on back skin daily day 15-21; for Mouse 1 Erythema / Mouse 1 Abrasion / Mouse 1 Dryness / Mouse 1 Edema / Mouse 1 Eschar / Mouse 1 Lichenification / Mouse 2 Abrasion / Mouse 2 Dryness / Mouse 2 Edema / Mouse 2 Erythema / Mouse 2 Eschar / Mouse 2 Lichenification / Mouse 3 Abrasion / Mouse 3 Dryness / Mouse 3 Edema / Mouse 3 Erythema / Mouse 3 Eschar / Mouse 3 Lichenification: graded per Example 4; for Mouse 1 Abrasion / Mouse 1 Dryness / Mouse 1 Edema / Mouse 1 Eschar / Mouse 1 Lichenification / Mouse 1 Sum / Mouse 2 Abrasion / Mouse 2 Dryness / Mouse 2 Edema / Mouse 2 Erythema / Mouse 2 Eschar / Mouse 2 Lichenification / Mouse 2 Sum / Mouse 3 Abrasion / Mouse 3 Dryness / Mouse 3 Edema / Mouse 3 Erythema / Mouse 3 Eschar / Mouse 3 Lichenification / Mouse 3 Sum / Mean (of Sum, SCORAD): DNFB Nc/Nga, 0.1% topical day 15-21; for Mouse 1 Sum / Mouse 2 Sum / Mouse 3 Sum: sum of individual scores; for Mean (of Sum, SCORAD): mean of 3 mice
Protocol: In order to establish a model more similar to an atopy model than that of the Balb/c mice, atopy was induced in Nc/Nga mouse mice. Specifically, after inducing DNFB sensitization by applying 100 μL of 0.35% 2,4-dinitrofluorobenzene (DNFB) in acetone/olive oil (3:1) on the shaved back skin, dermatitis was induced by applying 100 μL of 0.15% DNFB for 4-20 days, every other day. Control mice were treated with a vehicle of the same volume (FIG. 1B).
After dissolving an N-acetyl or N-acylamino acid in phosphate-buffered saline to 0.1%, 200 μL of the solution was applied on the back skin of the mice every day, from day 22 until day 28 for the Balb/c atopic dermatitis model, and from day 15 until day 21 for the Nc/Nga atopic dermatitis model. When the N-acetyl or N-acylamino acid was treated together with DNFB, they were treated with 12-hour intervals in order to avoid direct reaction between the DNFB and the N-acetyl or N-acylamino acid. A non-treated group and a 2,4-dinitrofluorobenzene (DNFB) group were treated with phosphate-buffered saline of the same volume (FIGS. 1A-1B). As the N-acetylamino acid, products purchased from Sigma-Aldrich (USA), MP scientific (USA), TCI (Tokyo Chemical Industry, Japan), Santacruz (USA), etc. were used without purification.
The degree of skin soothing and the severity of atopic dermatitis were evaluated macroscopically according to the previously established SCORAD (SCORing Atopic Dermatitis) method (Oranje et al., 2007). The degree of symptoms such as edema, erythema, eschar, dryness, abrasion, lichenification, etc. was graded from 0 to 3 (0, no symptom; 1, mild; 2, moderate; 3, severe). The overall dermatitis score was determined from the sum of all individual scores (Table 1). The assessment was performed by an investigator who was blind to the grouping of the mice.
Skin-soothing effect and the severity of dermatitis were evaluated for the acyl derivatives of tryptophan synthesized in Example 9, the acyl derivative of alanine synthesized in Example 10 and N-palmitoylalanine (purchased from Santacruz (USA)) according to the method of Example 4 (Table 2)

[2] = system: pruritus caused by atopic contact dermatitis; test: Pruritus inhibition test, pruritus induced with DNFB; type: in vivo, mouse; conditions: 0.1% in physiological saline applied once onto right ear; pruritus measured for 1 hour
Protocol: In order to investigate whether L-form, LID-form and D-form N-acetylalanine, N-acetylarginine, N-acetylthreonine and N-acetyltryptophan inhibit pruritus caused by atopic contact dermatitis, 20 μL of 0.1% 2,4-dinitrofluorobenzene (DNFB) solution and 0.1% N-acetylamino acid dissolved in physiological saline were applied once onto the right ear 10 minutes after the final treatment (day 27) with 2,4-dinitrofluorobenzene (DNFB) (Physiological saline was applied to a negative control group), and then pruritus was measured for 1 hour. FIG. 7 compares the pruritus-relieving effect of L-form N-acetylalanine, N-acetylthreonine, N-acetylarginine and N-acetyltryptophan with D/L-form and D-form N-acetylalanine and N-acetyltryptophan at 0.1% after the induction of pruritus with DNFB.

Row | Compound | Mouse 1 Erythema [1] | Mouse 1 Abrasion [1] | Mouse 1 Dryness [1] | Mouse 1 Edema [1] | Mouse 1 Eschar [1] | Mouse 1 Lichenification [1] | Mouse 1 Sum [1] | Mouse 2 Abrasion [1] | Mouse 2 Dryness [1] | Mouse 2 Edema [1] | Mouse 2 Erythema [1] | Mouse 2 Eschar [1] | Mouse 2 Lichenification [1] | Mouse 2 Sum [1] | Mouse 3 Abrasion [1] | Mouse 3 Dryness [1] | Mouse 3 Edema [1] | Mouse 3 Erythema [1] | Mouse 3 Eschar [1] | Mouse 3 Lichenification [1] | further results
1 | CC(=O)N[C@@H](C)C(=O)O [D/L-form N-acetylalanine, N-acetylalanine, reference compound] | – | – | – | – | – | – | – | – | – | – | – | – | – | – | – | – | – | – | – | – | dermatitis-treating effect of L-, L/D- and D-form (FIG. 6) ([1]; listed as LID-form N-acetylalanine): no effect; pruritus-relieving effect (FIG. 7) [2]: little effect
2 | CC(=O)N[C@@H](Cc1c[nH]c2ccccc12)C(=O)O [D/L-form N-acetyltryptophan, N-acetyltryptophan, reference compound] | – | – | – | – | – | – | – | – | – | – | – | – | – | – | – | – | – | – | – | – | dermatitis-treating effect of L-, L/D- and D-form (FIG. 6) ([1]; listed as LID-form N-acetyltryptophan): no effect; pruritus-relieving effect (FIG. 7) [2]: little effect
3 | CCCCC(=O)N[C@@H](Cc1c[nH]c2ccccc12)C(=O)O [N-pentanoyl L-tryptophan, N-pentanoyl-L-tryptophan] | 2 | 1 | 2 | 2 | 2 | 2 | 11 | 1 | 2 | 2 | 2 | 1 | 2 | 10 | 2 | 1 | 2 | 2 | 2 | 1 | Mouse 3 Sum [1]: 10; Mean (of Sum, SCORAD) [1]: 10.3
4 | CCC(=O)N[C@@H](Cc1c[nH]c2ccccc12)C(=O)O [N-propionyl L-tryptophan, N-propionyl-L-tryptophan] | 2 | 2 | 2 | 2 | 2 | 2 | 12 | 2 | 3 | 2 | 2 | 2 | 2 | 13 | 2 | 1 | 1 | 2 | 2 | 1 | Mouse 3 Sum [1]: 9; Mean (of Sum, SCORAD) [1]: 11.3
5 | CCCCCCCCCCCCCCCCCC(=O)N[C@@H](Cc1c[nH]c2ccccc12)C(=O)O [N-stearyl-L-tryptophan, N-stearoyl-L-tryptophan] | 2 | 2 | 2 | 2 | 2 | 2 | 12 | 2 | 2 | 2 | 2 | 1 | 1 | 10 | 2 | 1 | 2 | 2 | 2 | 2 | Mouse 3 Sum [1]: 11; Mean (of Sum, SCORAD) [1]: 11
6 | CCCCCCCCCCC(=O)N[C@@H](Cc1c[nH]c2ccccc12)C(=O)O [N-undecanoyl L-tryptophan, N-undecanoyl-L-tryptophan] | 1 | 2 | 1 | 2 | 1 | 2 | 9 | 2 | 1 | 1 | 2 | 2 | 2 | 10 | 1 | 1 | 2 | 1 | 2 | 2 | Mouse 3 Sum [1]: 9; Mean (of Sum, SCORAD) [1]: 9.3
